Experimental data: patent US9895314B2, “Delayed release pharmaceutical formulation containing porous carrier particles for colon targeting” (Tillotts Pharma AG, priority 2014, dated 2018)

Experiment: Accelerated stability study, compatibility of MBZ and FCC (HPLC-UV)
Assay type: physicochemical
Conditions: drug loaded FCC with 20 and 50% drug content, 25° C., 40° C. and 60° C., 25 days
Experimental: The compatibility of MBZ and FCC was investigated by an accelerated stability study. Drug loaded FCC particles with 20 and 50% drug content were stored at 25° C., 40° C. and 60° C. over a period of 25 days. On several days the MBZ content was analyzed by HPLC-UV.

Cc1ncc([N+](=O)[O-])n1CCOC(=O)c1ccccc1 [MBZ, metronidazole benzoate]
degradation products from hydrolysis (metronidazole, benzoic acid) detected: not any degradation products
